pIC50: −log10 of the molar value.
Columns and labels:
Type in all cases: biochemical
Kit = biological target: T1, Kit (Homo sapiens, UniProt P10721); experiment: AlphaScreen kinase assay, Kit; settings: read-out: IC50, activity toward kinase Kit
T1 construct: P1332.N6 BI PTP KIT M552-K948-X COD; His6 (N); made in house; host or cells: E. coli (PTP1B co-expressed)

B-Raf = biological target: T2, B-Raf (Homo sapiens, UniProt P15056); experiment: AlphaScreen kinase assay, B-Raf; settings: read-out: IC50, activity toward kinase B-Raf
T2 construct: purchased Upstate Biotechnology
T2 sequence (P15056 whole entry): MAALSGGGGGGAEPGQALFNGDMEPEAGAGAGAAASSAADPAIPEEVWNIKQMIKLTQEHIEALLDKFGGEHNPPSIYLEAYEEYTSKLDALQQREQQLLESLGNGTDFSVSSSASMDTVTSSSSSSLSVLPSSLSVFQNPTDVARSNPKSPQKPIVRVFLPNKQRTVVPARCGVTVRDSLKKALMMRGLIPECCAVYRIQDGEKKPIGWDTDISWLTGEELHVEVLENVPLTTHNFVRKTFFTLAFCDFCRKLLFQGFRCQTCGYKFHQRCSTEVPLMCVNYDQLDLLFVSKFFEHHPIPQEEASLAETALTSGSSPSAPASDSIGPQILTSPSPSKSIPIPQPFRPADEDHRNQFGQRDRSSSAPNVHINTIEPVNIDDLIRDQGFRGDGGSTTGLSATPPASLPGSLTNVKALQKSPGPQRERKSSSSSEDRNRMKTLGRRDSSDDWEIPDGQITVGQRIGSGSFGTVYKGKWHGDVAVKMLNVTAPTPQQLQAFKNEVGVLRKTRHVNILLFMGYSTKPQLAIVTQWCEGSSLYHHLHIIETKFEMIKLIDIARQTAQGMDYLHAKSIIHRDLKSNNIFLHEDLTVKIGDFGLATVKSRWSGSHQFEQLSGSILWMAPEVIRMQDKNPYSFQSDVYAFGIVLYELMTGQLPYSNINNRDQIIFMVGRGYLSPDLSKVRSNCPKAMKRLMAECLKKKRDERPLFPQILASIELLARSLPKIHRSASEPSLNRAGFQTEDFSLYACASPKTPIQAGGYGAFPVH

B-Raf V600E = biological target: T3, B-Raf V600E (Homo sapiens, UniProt P15056, V600E); experiment: AlphaScreen kinase assay, B-Raf V600E; settings: read-out: IC50, activity toward kinase B-Raf V600E
T3 construct: P4254. pFastBacBD-CDC37 BRAF D437-K722-X, V600E; His6 with pFastBac HT leader (TEV site) (N); made in house; host or cells: Sf9 (baculovirus; chaperone CDC37 co-expressed)
T3 sequence (P15056 with tags, fused parts or gaps V600E): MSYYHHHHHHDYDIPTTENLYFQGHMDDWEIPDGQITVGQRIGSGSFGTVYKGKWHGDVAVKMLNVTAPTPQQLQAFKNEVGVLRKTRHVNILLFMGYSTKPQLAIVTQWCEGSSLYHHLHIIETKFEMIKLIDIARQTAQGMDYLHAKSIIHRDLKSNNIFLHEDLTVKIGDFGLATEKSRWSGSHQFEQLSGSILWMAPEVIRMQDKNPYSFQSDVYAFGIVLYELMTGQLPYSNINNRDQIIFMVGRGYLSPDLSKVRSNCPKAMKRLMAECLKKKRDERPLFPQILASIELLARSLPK

c-Raf-1 = biological target: T4, c-Raf-1 (Homo sapiens, UniProt P04049); experiment: AlphaScreen kinase assay, c-Raf-1; settings: read-out: IC50, activity toward kinase c-Raf-1
T4 construct: purchased Upstate Biotechnology
T4 sequence (P04049 whole entry): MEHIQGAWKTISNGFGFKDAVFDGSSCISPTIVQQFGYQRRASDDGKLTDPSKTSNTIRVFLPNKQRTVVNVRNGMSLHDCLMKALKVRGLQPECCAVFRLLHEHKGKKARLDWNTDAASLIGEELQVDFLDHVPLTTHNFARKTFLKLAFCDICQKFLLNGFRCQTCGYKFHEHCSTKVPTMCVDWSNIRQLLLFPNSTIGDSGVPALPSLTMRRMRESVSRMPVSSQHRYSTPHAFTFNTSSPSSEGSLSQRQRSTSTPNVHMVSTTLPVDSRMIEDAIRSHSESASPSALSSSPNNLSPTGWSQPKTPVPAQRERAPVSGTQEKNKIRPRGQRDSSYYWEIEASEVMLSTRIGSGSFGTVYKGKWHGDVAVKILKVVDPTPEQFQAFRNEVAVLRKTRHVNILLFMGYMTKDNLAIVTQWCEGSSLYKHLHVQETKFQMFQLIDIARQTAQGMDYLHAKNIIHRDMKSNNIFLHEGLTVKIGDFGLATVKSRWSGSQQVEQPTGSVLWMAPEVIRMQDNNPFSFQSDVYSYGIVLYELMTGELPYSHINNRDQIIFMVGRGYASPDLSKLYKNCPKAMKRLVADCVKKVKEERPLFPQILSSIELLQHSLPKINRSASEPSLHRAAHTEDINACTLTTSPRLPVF

FGFR1 = biological target: T5, FGFR1 (Homo sapiens, UniProt P11362, C488A/C584S); experiment: AlphaScreen kinase assay, FGFR1; settings: read-out: IC50, activity toward kinase FGFR
T5 construct: P1351.pET N6 BI-PTP FGFR A458-E765-X C488A, C584S; made in house; host or cells: E. coli (PTP1B co-expressed)
T5 sequence (P11362 458-765 C488A/C584S): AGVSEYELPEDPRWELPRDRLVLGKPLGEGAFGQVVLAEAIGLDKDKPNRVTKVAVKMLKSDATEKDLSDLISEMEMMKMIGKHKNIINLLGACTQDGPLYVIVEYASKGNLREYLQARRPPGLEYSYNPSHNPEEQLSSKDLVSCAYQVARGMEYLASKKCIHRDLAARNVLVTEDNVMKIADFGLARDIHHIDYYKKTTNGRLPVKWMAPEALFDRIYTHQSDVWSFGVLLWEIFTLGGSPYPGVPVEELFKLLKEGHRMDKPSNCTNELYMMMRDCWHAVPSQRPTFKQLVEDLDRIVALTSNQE

Fms = biological target: T6, Fms (Homo sapiens, UniProt P07333); experiment: AlphaScreen kinase assay, Fms; settings: read-out: IC50, activity toward kinase Fms
T6 construct: purchased Upstate Biotechnology
T6 sequence (P07333 20-972): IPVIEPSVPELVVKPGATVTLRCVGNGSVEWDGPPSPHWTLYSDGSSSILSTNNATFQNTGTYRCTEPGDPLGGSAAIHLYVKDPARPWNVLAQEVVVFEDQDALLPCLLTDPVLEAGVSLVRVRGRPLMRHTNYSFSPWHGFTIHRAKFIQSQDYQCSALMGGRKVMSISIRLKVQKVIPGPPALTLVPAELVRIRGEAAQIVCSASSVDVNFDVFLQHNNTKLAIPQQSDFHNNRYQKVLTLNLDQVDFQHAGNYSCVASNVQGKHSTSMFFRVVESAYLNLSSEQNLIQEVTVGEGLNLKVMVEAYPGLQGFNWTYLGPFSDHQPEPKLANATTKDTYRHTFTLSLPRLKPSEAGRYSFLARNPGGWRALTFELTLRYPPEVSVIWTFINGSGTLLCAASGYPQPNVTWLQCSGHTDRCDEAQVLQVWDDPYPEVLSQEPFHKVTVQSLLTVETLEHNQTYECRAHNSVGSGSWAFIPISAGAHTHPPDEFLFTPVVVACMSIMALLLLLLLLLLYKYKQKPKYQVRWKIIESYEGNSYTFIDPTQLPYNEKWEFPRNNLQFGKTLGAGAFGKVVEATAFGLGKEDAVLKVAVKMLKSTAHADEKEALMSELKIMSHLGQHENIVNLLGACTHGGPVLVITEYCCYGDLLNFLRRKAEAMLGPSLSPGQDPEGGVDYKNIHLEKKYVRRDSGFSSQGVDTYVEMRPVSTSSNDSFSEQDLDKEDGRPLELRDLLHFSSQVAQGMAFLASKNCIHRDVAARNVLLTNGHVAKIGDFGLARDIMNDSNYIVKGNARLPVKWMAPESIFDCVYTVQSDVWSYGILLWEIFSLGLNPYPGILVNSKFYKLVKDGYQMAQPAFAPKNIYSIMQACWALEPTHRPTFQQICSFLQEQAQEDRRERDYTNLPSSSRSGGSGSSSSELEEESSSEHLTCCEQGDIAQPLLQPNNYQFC

Measured: pIC50

T1 sequence (P10721 with tags, fused parts or gaps): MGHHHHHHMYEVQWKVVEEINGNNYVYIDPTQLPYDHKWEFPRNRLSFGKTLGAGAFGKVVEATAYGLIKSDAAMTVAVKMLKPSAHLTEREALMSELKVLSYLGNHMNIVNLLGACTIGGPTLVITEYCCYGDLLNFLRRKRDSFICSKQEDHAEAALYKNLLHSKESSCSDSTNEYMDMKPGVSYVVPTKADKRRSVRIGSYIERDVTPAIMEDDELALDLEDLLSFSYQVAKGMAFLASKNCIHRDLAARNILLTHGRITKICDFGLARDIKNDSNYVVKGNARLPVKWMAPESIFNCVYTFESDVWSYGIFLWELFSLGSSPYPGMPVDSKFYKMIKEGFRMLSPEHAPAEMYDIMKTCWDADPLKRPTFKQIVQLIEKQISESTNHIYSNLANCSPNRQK

CCCS(=O)(=O)Nc1ccc(Cl)c(C(=O)c2c[nH]c3ncc(-c4ccccc4)cc23)c1F [Compound P-0776, Propane-1-sulfonic acid [4-chloro-2-fluoro-3-(5-phenyl-1H-pyrrolo[2,3-b]pyridine-3-carbonyl)-phenyl]-amide]
not listed: Fms
≥ 5.00: all other assays above

O=C(Nc1ccc(F)c(C(=O)c2c[nH]c3ncccc23)c1F)OCc1ccccc1 [Compound P-0894, [2,4-Difluoro-3-(1H-pyrrolo[2,3-b]pyridine-3-carbonyl)-phenyl]-carbamic acid benzyl ester]
≥ 5.00: B-Raf | B-Raf V600E | c-Raf-1 | FGFR1

CCCS(=O)(=O)Nc1ccc(Cl)c(C(=O)c2c[nH]c3ncc(Cl)cc23)c1F [Compound P-1004, Propane-1-sulfonic acid [4-chloro-3-(5-chloro-1H-pyrrolo[2,3-b]pyridine-3-carbonyl)-2-fluoro-phenyl]-amide]
≥ 5.00: B-Raf | B-Raf V600E | c-Raf-1 | FGFR1

CCCS(=O)(=O)Nc1cccc(C(=O)c2c[nH]c3ncc(F)cc23)c1F [Compound P-1028, propane-1-sulfonic acid [2-fluoro-3-(5-fluoro-1H-pyrrolo[2,3-b]pyridine-3-carbonyl)-phenyl]-amide]
≥ 5.00: B-Raf | B-Raf V600E | c-Raf-1

CCCS(=O)(=O)Nc1ccc(F)c(C(O)c2c[nH]c3ncc(OC)cc23)c1F (centres unmarked) [Compound P-1243, Propane-1-sulfonic acid {2,4-difluoro-3-[hydroxy-(5-methoxy-1H-pyrrolo[2,3-b]pyridin-3-yl)-methyl]-phenyl}-amide]
≥ 5.00: B-Raf | B-Raf V600E | c-Raf-1

CCCS(=O)(=O)Nc1ccc(F)c(C(=O)c2c[nH]c3ncc(C(=O)NCC)cc23)c1F [Compound P-1630, 3-[2,6-difluoro-3-(propane-1-sulfonylamino)-benzoyl]-1H-pyrrolo[2,3-b]pyridine-5-carboxylic acid ethylamide]
not listed: FGFR1
≥ 5.00: all other assays above

O=C(Nc1cccc(C(=O)c2c[nH]c3ncccc23)c1)Nc1cc(C(F)(F)F)ccc1Cl [Compound P-1712, 1-(2-Chloro-5-trifluoromethyl-phenyl)-3-[3-(1H-pyrrolo[2,3-b]pyridine-3-carbonyl)-phenyl]-urea]
not listed: FGFR1
≥ 5.00: all other assays above

O=C(Nc1cccc(C(=O)c2c[nH]c3ncccc23)c1)Nc1cccc(C(F)(F)F)c1F [Compound P-1714, 1-(2-Fluoro-3-trifluoromethyl-phenyl)-3-[3-(1H-pyrrolo[2,3-b]pyridine-3-carbonyl)-phenyl]-urea]
not listed: FGFR1
≥ 5.00: all other assays above

O=C(Nc1cccc(C(=O)c2c[nH]c3ncc(Cl)cc23)c1)Nc1cc(C(F)(F)F)ccc1Cl [Compound P-1738, 1-[3-(5-Chloro-1H-pyrrolo[2,3-b]pyridine-3-carbonyl)-phenyl]-3-(2-chloro-5-trifluoromethyl-phenyl)-urea]
≥ 5.00: Fms | B-Raf | B-Raf V600E | c-Raf-1
